For orientation: pIC50 means the negative decadic logarithm of the IC50, by convention in mol/L.

One assay addresses T1, PDE3A (Homo sapiens, UniProt Q14432).
T1 construct: purchased BPS
The assay is described as follows: In vitro inhibitory effect on PDE3A enzyme (AMP-Glo assay). In kind it is biochemical. How it is done:
(§1) 1. Table 1 Main reagents and consumables for in vitro detection of inhibitory effect
(§2) 2. Preparation of experimental buffers Reaction buffer (5×): 50 mM Tris-HCl (buffer), 50 mM MgCl2, 0.5% BSA, 0.25% Tween-20, pH 7.4, stored at -20°C. 3. […] The starting concentration of the reference substance serial dilution was the Low control, and 1% DMSO-reaction buffer served as the High control. • 3) The enzyme was diluted to the desired concentration with 1× reaction buffer, and 4 µL of the diluted solution was transferred to the assay plate. After centrifugation, the 384-well low dead-volume microplate was sealed with sealing film and incubated in the incubator at 23°C for 15 minutes. • 4) The substrate cAMP was diluted to the desired concentration using 1× reaction buffer, and 5 µL of the diluted solution was transferred to the assay plate. After centrifugation, the plate was sealed again and incubated in the incubator at 23°C for 60 minutes (PDE3A) or 10 minutes (PDE4B1). • 5) Then, 5 µL of Reagent I from the AMP-Glo™ Assay Kit was added to the assay plate. After centrifugation and sealing, the plate was incubated in the incubator at 23°C for 60 minutes. • 6) The detection solution was prepared according to the AMP-Glo™ Assay Kit instructions, and 10 µL of the detection solution was added to the assay plate. After centrifugation and sealing, the plate was incubated in the incubator at 23°C for 60 minutes. • 7) The readout was recorded using a multimode microplate reader. 4. […] 5.

The target of another assay is T2, PDE4B1 (Homo sapiens, UniProt Q07343).
T2 construct: purchased Sigma
T2 sequence (Q07343 whole entry): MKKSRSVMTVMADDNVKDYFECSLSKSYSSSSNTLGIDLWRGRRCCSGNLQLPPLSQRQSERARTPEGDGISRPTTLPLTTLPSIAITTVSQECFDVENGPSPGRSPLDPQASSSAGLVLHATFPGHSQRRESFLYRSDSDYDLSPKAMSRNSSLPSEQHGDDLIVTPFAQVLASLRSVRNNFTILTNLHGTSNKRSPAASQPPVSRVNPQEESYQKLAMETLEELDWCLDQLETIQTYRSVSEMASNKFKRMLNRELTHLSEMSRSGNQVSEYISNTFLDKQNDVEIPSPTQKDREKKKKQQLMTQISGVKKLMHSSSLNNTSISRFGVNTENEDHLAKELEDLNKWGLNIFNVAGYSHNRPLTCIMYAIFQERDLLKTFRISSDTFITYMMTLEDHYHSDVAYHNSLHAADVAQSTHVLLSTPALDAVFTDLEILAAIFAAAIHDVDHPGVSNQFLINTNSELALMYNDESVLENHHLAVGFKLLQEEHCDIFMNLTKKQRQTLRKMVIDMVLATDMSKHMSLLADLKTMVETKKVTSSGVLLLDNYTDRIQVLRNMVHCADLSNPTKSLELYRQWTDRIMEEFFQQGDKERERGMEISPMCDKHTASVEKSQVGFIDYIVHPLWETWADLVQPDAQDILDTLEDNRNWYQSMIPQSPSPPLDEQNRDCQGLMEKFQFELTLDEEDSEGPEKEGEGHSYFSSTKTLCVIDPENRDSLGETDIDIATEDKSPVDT
The assay is described as follows: In vitro inhibitory effect on PDE4B1 enzyme (AMP-Glo assay). In kind it is biochemical. Here is the method:
as §1, §2

[1] abbreviates: AMP-Glo Assay Kit, substrate cAMP, 23°C, 60 minutes, read-out: PDE3A (IC50).
The mark [2] stands for this setting: AMP-Glo Assay Kit, substrate cAMP, 23°C, 10 minutes, read-out: PDE4B1 (IC50).

pIC50: −log10 of the molar value. Like-named read-outs stand apart in the source and are kept apart here.

T1 sequence (Q14432 whole entry): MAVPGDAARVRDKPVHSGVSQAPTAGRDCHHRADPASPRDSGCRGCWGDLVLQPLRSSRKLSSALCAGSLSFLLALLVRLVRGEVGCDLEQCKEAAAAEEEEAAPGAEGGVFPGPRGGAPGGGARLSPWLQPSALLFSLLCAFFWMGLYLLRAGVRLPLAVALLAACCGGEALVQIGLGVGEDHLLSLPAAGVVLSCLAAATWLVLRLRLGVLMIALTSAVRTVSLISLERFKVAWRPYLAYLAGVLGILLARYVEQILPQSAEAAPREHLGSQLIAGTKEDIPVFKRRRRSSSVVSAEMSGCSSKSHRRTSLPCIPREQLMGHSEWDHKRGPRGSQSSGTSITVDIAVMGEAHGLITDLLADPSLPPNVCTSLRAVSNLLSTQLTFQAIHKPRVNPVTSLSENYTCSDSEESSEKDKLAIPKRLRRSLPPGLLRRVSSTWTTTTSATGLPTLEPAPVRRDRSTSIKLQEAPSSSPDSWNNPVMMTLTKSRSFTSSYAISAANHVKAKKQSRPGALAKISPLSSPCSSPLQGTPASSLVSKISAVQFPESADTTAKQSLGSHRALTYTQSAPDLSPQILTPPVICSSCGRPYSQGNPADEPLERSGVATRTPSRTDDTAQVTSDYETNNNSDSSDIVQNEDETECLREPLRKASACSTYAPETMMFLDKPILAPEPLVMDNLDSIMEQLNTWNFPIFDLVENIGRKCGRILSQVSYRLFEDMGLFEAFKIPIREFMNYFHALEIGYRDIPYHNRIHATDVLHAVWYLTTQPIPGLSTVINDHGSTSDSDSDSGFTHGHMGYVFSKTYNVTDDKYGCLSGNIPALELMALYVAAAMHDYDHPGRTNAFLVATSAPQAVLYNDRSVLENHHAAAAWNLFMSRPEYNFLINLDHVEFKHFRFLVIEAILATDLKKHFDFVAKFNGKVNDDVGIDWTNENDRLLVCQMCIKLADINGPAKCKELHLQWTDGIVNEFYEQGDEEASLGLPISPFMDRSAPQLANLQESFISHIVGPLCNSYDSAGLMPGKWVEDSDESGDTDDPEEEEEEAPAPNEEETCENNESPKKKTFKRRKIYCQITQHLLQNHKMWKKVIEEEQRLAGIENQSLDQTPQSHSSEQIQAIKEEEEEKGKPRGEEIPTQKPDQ

Consider `CCOc1cc2c(cc1OC)-c1cc(N(CCN3CCS(=O)(=O)CC3)c3c(C)cc(C)cc3C)nc(=O)n1CC2` [Compound 72], for which the results for the negative logarithm of the IC50 (pIC50) at PDE3A (setting [1]) and on PDE4B1 (setting [2]) were 10.13 and 8.30, respectively.
As to `COc1cc2c(cc1OC)-c1cc(=Nc3c(C)cc(C)cc3C)n(CCNC(=O)c3cccn(CC(F)(F)F)c3=O)c(=O)n1CC2` [Compound 55], the negative logarithm of the IC50 (pIC50) on PDE3A was 9.31; on PDE4B1, 6.58.
Turning to `COc1cc2c(cc1OC)-c1cc(=Nc3c(C)cc(C)cc3C)n(CCNC(N)=O)c(=O)n1CCS2` [Compound 20], the figures for the pIC50 on PDE3A and on PDE4B1 were 7.60 and 6.60, respectively.
With `CCOc1cc2c(cc1OC)-c1cc(=Nc3c(C)cc(C)cc3C)n(CCNC(=O)c3c(O)nnn3C)c(=O)n1CC2` [Compound 23], the pIC50 against PDE3A was 11.24; on PDE4B1, 7.89.
Regarding `COc1cc2c(cc1OC)-c1cc(N(c3c(C)cc(C)cc3C)C3CN(C(=O)c4[nH]nnc4C)C3)nc(=O)n1CC2` [Compound 50], the results for the pIC50 against PDE3A and against PDE4B1 were 11.30 and 7.17, respectively.
In the case of `CCOc1cc2c(cc1OC)-c1cc(=Nc3c(C)cc(C)cc3C)n(CCN3CCS(=O)(=O)CC3)c(=O)n1CC2` [Compound 73], the values for the negative logarithm of the IC50 (pIC50) on PDE3A (setting [1]) and at PDE4B1 (setting [2]) were 9.28 and 6.38, respectively.
Turning to `COc1cc2c(cc1OC)-c1cc(N(CCNC(=O)c3cccn(C)c3=O)c3c(C)cc(C)cc3C)nc(=O)n1CC2` [Compound 46], the pIC50 against PDE3A is 10.09; against PDE4B1 it was 7.75.
As to `COc1cc2c(cc1OC)-c1cc(=Nc3c(C)cc(C)cc3C)n(CCNC(=O)c3cnc4n3CCC4)c(=O)n1CC2` [Compound 36], the values for the pIC50 against PDE3A and on PDE4B1 were 9.05 and 6.28, respectively.
Take `CCOc1cc2c(cc1OC)-c1cc(N(CCNC(=O)c3c[nH]nn3)c3c(C)cc(C)cc3C)nc(=O)n1CC2` [Compound 64]: the pIC50 on PDE3A (setting [1]) is 10.72; at PDE4B1 (setting [2]), 8.08.
Regarding `CCOc1cc2c(cc1OC)-c1cc(=Nc3c(C)cc(C)cc3C)n(CCNC(=O)c3cc[nH]c(=O)c3)c(=O)n1CC2` [Compound 30], the pIC50 against PDE3A was 8.49; against PDE4B1 it was 7.58.
With `CCOc1cc2c(cc1OC)-c1cc(N(CCC(N)C(F)(F)F)c3c(C)cc(C)cc3C)nc(=O)n1CC2` (stereo not shown) [Compound 78], the pIC50 at PDE3A (setting [1]) is 10.57; at PDE4B1 (setting [2]) it was 8.05.
Turning to `CCOc1cc2c(cc1OC)CCn1c-2cc(=Nc2c(C)cc(C)cc2C)n(CCNC(N)=O)c1=O` [Compound 12], the pIC50 is 8.13 against PDE3A and 6.47 against PDE4B1.
In the same order, the values of `CCOc1cc2c(cc1OC)-c1cc(N(CCN)c3c(C)cc(C)cc3C)nc(=O)n1CC2` [Compound 42] are 9.21 and 7.12.
For `COc1cc2c(cc1OC)-c1cc(=Nc3c(C)cc(C)cc3C)n(CCNC(=O)NC3CCNCC3)c(=O)n1CC2` [Compound 67], the pIC50 at PDE3A is 8.26; against PDE4B1, 5.42.
In the same order, the values of `COc1cc2c(cc1OC)-c1cc(=Nc3c(C)cc(C)cc3C)n(CCNC(=O)OCC(O)CCO)c(=O)n1CC2` (stereo not shown) [Compound 69] are 8.72 and 5.17.
Take `CCOc1cc2c(cc1OC)-c1cc(N(CCN3CCN(C(C)=O)CC3)c3c(C)cc(C)cc3C)nc(=O)n1CC2` [Compound 71]: the values for the pIC50 on PDE3A (setting [1]) and on PDE4B1 (setting [2]) were 10.24 and 7.88, respectively.
Consider `CCOc1cc2c(cc1OC)-c1cc(=Nc3c(C)cc(C)cc3C)n(CCNC(=O)c3ccnn(C)c3=O)c(=O)n1CC2` [Compound 59], for which the pIC50 was 9.12 at PDE3A and 7.56 against PDE4B1.
Take `CCOc1cc2c(cc1OC)-c1cc(N(CCNC(=O)N3CCOCC3CO)c3c(C)cc(C)cc3C)nc(=O)n1CC2` (stereo not shown) [Compound 83]: the pIC50 was 10.37 on PDE3A (setting [1]) and 7.43 at PDE4B1 (setting [2]).
Turning to `CCOc1cc2c(cc1OC)-c1cc(N(CCN3CC(F)C3)c3c(C)cc(C)cc3C)nc(=O)n1CC2` [Compound 74], the pIC50 on PDE3A (setting [1]) is 10.30; on PDE4B1 (setting [2]), 8.09.
The corresponding values for `CCOc1cc2c(cc1OC)-c1cc(N(CCNC(=O)c3ccno3)c3c(C)cc(C)cc3C)nc(=O)n1CC2` [Compound 62] are 10.26 and 8.59.
